Assay [1] addresses T1, MKNK1 (Homo sapiens, UniProt Q9BUB5, T385D).
T1 construct: GST (N); purchased Carna Biosciences 02-145; host or cells: insect cells (baculovirus expression system)
As to the kind of experiment: MKNK1 kinase high ATP assay (TR-FRET). The format is biochemical. The following applies: ATP final conc. 2 mM; 15 min pre-incubation; reaction time 30 min at 22°C. Here is the method:
MKNK1-inhibitory activity at high ATP of compounds of the present invention after their preincubation with MKNK1 was quantified employing the TR-FRET-based MKNK1 high ATP assay as described in the following paragraphs.
As substrate for the kinase reaction the biotinylated peptide biotin-Ahx-[…] (C-terminus in amide form) was used, which can be purchased e.g. from the company Biosyntan (Berlin-Buch, Germany).
For the assay 50 nL of a 100fold concentrated solution of the test compound in DMSO was pipetted into a black low volume 384well microtiter plate (Greiner Bio-One, Frickenhausen, Germany), 2 µL of a solution of MKNK1 in aqueous assay buffer [50 mM HEPES pH 7.5, 5 mM magnesium chloride, 1.0 mM dithiothreitol, 0.005% (v/v) Nonidet-P40 (Sigma)] was added and the mixture was incubated for 15 min at 22°C to allow pre-binding of the test compounds to the enzyme before the start of the kinase reaction. Then the kinase reaction was started by the addition of 3 µL of a solution of adenosine-tri-phosphate (ATP, 3.3 mM => final conc. in the 5 µL assay volume is 2 mM) and substrate (0.1 µM => final conc. in the 5 µL assay volume is 0.06 µM) in assay buffer and the resulting mixture was incubated for a reaction time of 30 min at 22°C. The concentration of MKNK1 was adjusted depending of the activity of the enzyme lot and was chosen appropriate to have the assay in the linear range, typical concentrations were in the range of 0.003 µg/mL. The reaction was stopped by the addition of 5 µL of a solution of TR-FRET detection reagents (5 nM streptavidine-XL665 [Cisbio Bioassays, Codolet, France] and 1 nM anti-ribosomal protein S6 (pSer236)-antibody from Invitrogen [# 44921G] and 1 nM LANCE EU-W1024 labeled ProteinG [Perkin-Elmer, product no. AD0071]) in an aqueous EDTA-solution (100 mM EDTA, 0.1 % (w/v) bovine serum albumin in 50 mM HEPES pH 7.5).
(§1) The resulting mixture was incubated for 1 h at 22°C to allow the formation of complex between the phosphorylated biotinylated peptide and the detection reagents. Subsequently the amount of phosphorylated substrate was evaluated by measurement of the resonance energy transfer from the Eu-chelate to the streptavidine-XL. Therefore, the fluorescence emissions at 620 nm and 665 nm after excitation at 350 nm were measured in a TR-FRET reader, e.g. a Rubystar (BMG Labtechnologies, Offenburg, Germany) or a Viewlux (Perkin-Elmer). The ratio of the emissions at 665 nm and at […] was taken as the measure for the amount of phosphorylated substrate. The data were normalised (enzyme reaction without inhibitor = 0 % inhibition, all other assay components but no enzyme = 100 % inhibition).
(In general: TR-FRET usually uses a lanthanide donor and a delayed reading to cut background.)

Assay [2] addresses T1, MKNK1. Description: MKNK1 kinase assay (TR-FRET). The format is biochemical. To be noted: ATP final conc. 10 µM; 15 min pre-incubation; reaction time 45 min at 22°C. Here is the method:
MKNK1-inhibitory activity of compounds of the present invention was quantified employing the MKNK1 TR-FRET assay as described in the following paragraphs.
As substrate for the kinase reaction the biotinylated peptide biotin-Ahx-[…] (C-terminus in amide form) was used which can be purchased e.g. form the company Biosyntan (Berlin-Buch, Germany).
For the assay 50 nL of a 100fold concentrated solution of the test compound in DMSO was pipetted into a black low volume 384well microtiter plate (Greiner Bio-One, Frickenhausen, Germany), 2 µL of a solution of MKNK1 in aqueous assay buffer [50 mM HEPES pH 7.5, 5 mM magnesium chloride, 1.0 mM dithiothreitol, 0.005% (v/v) Nonidet-P40 (Sigma)] was added and the mixture was incubated for 15 min at 22°C to allow pre-binding of the test compounds to the enzyme before the start of the kinase reaction. Then the kinase reaction was started by the addition of 3 µL of a solution of adenosine-tri-phosphate (ATP, 16.7 µM => final conc. in the 5 µL assay volume is 10 µM) and substrate (0.1 µM => final conc. in the 5 µL assay volume is 0.06 µM) in assay buffer and the resulting mixture was incubated for a reaction time of 45 min at 22°C.
as §1, with “inhibition). […] Table 1: MKNK1 IC50s” for “inhibition).”

T1 sequence (Q9BUB5 1-424 isoform Q9BUB5-2 T344D): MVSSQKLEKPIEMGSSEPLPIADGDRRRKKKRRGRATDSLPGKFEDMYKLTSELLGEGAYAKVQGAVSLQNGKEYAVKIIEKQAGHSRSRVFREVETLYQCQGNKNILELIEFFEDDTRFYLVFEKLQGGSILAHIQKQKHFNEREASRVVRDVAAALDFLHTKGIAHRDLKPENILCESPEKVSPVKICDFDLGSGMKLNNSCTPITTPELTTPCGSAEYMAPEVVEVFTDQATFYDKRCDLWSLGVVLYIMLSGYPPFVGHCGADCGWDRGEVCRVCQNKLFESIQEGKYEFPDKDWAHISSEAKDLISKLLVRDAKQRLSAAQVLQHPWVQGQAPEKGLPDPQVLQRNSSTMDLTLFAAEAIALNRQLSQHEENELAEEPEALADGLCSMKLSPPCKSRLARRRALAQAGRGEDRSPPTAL

What is called IC50 is the concentration needed to halve the response being measured. Higher therefore signals a need for much substance. Take “1-{[3-(1-Benzofuran-2-yl)imidazo[1,2-b]pyridazin-6-yl]oxy}-2-methylpropan-2-amine [Example 29]”: the IC50 amounted to 59 nM against MKNK1 [1] and 17 nM against MKNK1 [2].

As to `COc1cccc2oc(-c3cnc4ccc(OCCCCN)nn34)cc12` [Example 1, 4-{[3-(4-Methoxy-1-benzofuran-2-yl)imidazo[1,2-b]pyridazin-6-yl]oxy}butan-1-amine], the half-maximal inhibitory concentration (IC50) turned out to be 5 nM on MKNK1 [1] and 3 nM against MKNK1 [2].

Consider `N[C@H]1C[C@H](Oc2ccc3ncc(-c4cc5ccccc5o4)n3n2)C1` [Example 2, trans-3-{[3-(1-Benzofuran-2-yl)imidazo[1,2-b]pyridazin-6-yl]oxy}cyclobutan-amine], for which the half-maximal inhibitory concentration (IC50) against MKNK1 [1] amounted to 6 nM; against MKNK1 [2] it was 5 nM.

For `N[C@H]1C[C@@H](Oc2ccc3ncc(-c4cc5ccccc5o4)n3n2)C1` [Example 3, cis-3-{[3-(1-Benzofuran-2-yl)imidazo[1,2-b]pyridazin-6-yl]oxy}cyclobutan-amine], the IC50 is 17 nM against MKNK1 [1] and 4 nM at MKNK1 [2].

On to `COc1cccc2oc(-c3cnc4ccc(OCCCN)nn34)cc12` [Example 4, 3-{[3-(4-Methoxy-1-benzofuran-2-yl)imidazo[1,2-b]pyridazin-6-yl]oxy}propan-1-amine], for which the IC50 on MKNK1 [1] was found to be 15 nM; at MKNK1 [2] it was 5 nM.

As to `COc1cccc2oc(-c3cnc4ccc(OCCN)nn34)cc12` [Example 5, 2-{[3-(4-Methoxy-1-benzofuran-2-yl)imidazo[1,2-b]pyridazin-6-yl]oxy}ethan-amine], the figures for the IC50 against MKNK1 [1] and on MKNK1 [2] were 18 nM and 6 nM, respectively.

With `COc1ccc2oc(-c3cnc4ccc(OCCN)nn34)cc2c1` [Example 6, 2-{[3-(5-Methoxy-1-benzofuran-2-yl)imidazo[1,2-b]pyridazin-6-yl]oxy}ethan-amine], the half-inhibitory concentration (IC50) against MKNK1 [1] is 13 nM; on MKNK1 [2] it was 6 nM.

As for `C[C@H](N)COc1ccc2ncc(-c3cc4ccccc4o3)n2n1` [Example 7, (2S)-1-{[3-(1-Benzofuran-2-yl)imidazo[1,2-b]pyridazin-6-yl]oxy}propan-2-amine], the concentration for half-maximal inhibition (IC50) came out at 18 nM against MKNK1 [1] and 7 nM at MKNK1 [2].

On to `NCCOCCOc1ccc2ncc(-c3cc4ccccc4o3)n2n1` [Example 21, 2-(2-{[3-(1-Benzofuran-2-yl)imidazo[1,2-b]pyridazin-6-yl]oxy}ethoxy)ethan-amine], for which the IC50 against MKNK1 [1] worked out at 14 nM.

Take `N[C@@H]1CCCC[C@H]1Oc1ccc2ncc(-c3cc4ccccc4o3)n2n1` [Example 23, (1R,2R)-2-{[3-(1-Benzofuran-2-yl)imidazo[1,2-b]pyridazin-6-yl]oxy}cyclohexan-amine]: it took 18 nM to reach half-maximal inhibition at MKNK1 [1] (IC50).

On MKNK1 [1], `NC1(COc2ccc3ncc(-c4cc5ccccc5o4)n3n2)CCC1` [Example 27, 1-({[3-(1-Benzofuran-2-yl)imidazo[1,2-b]pyridazin-6-yl]oxy}methyl)cyclobutan-amine] gave a half-inhibitory concentration (IC50) of 29 nM.

Regarding `C=CCCC(CN)Oc1ccc2ncc(-c3cc4ccccc4o3)n2n1` (stereo not shown) [Example 28, 2-{[3-(1-Benzofuran-2-yl)imidazo[1,2-b]pyridazin-6-yl]oxy}hex-5-en-1-amine], 45 nM corresponded to half-maximal inhibition on MKNK1 [1] (IC50).

For `NCC(CN1CCOCC1)Oc1ccc2ncc(-c3cc4ccccc4o3)n2n1` (stereo not shown) [Example 31, 2-{[3-(1-Benzofuran-2-yl)imidazo[1,2-b]pyridazin-6-yl]oxy}-3-(morpholin-4-yl)-propan-1-amine], on MKNK1 [1], the IC50 came to 78 nM.

In the case of `NC(COc1ccc2ncc(-c3cc4ccccc4o3)n2n1)C1CCOCC1` (stereo not shown) [Example 32, 2-{[3-(1-Benzofuran-2-yl)imidazo[1,2-b]pyridazin-6-yl]oxy}-1-(tetrahydro-2H-pyran-4-yl)ethanamine], on MKNK1 [1], the half-maximal inhibitory concentration (IC50) is 79 nM.

On to `NCC(Cc1ccc(F)cc1)Oc1ccc2ncc(-c3cc4ccccc4o3)n2n1` (stereo not shown) [Example 53, 2-{[3-(1-Benzofuran-2-yl)imidazo[1,2-b]pyridazin-6-yl]oxy}-3-(4-fluorophenyl)-propan-1-amine], for which 46 nM corresponded to half-maximal inhibition against MKNK1 [1] (IC50).

With `NCC(Cc1ccncc1)Oc1ccc2ncc(-c3cc4ccccc4o3)n2n1` (stereo not shown) [Example 54, 2-{[3-(1-Benzofuran-2-yl)imidazo[1,2-b]pyridazin-6-yl]oxy}-3-(pyridin-4-yl)-propan-1-amine], at MKNK1 [1], the IC50 was 19 nM.

For `NC[C@H](Oc1ccc2ncc(-c3cc4ccccc4o3)n2n1)c1cccnc1` [Example 55, (2R)-2-{[3-(1-benzofuran-2-yl)imidazo[1,2-b]pyridazin-6-yl]oxy}-2-(pyridin-3-yl)ethanamine], the IC50 on MKNK1 [2] is 16 nM.

On to `NCC(Oc1ccc2ncc(-c3cc4ccccc4o3)n2n1)c1ccc(F)cc1` (stereo not shown) [Example 56, 2-{[3-(1-benzofuran-2-yl)-imidazo-[1,2-b]-pyridazin-6-yl]oxy}-2-(4-fluorophenyl)-ethanamine], for which the half-maximal inhibitory concentration (IC50) at MKNK1 [2] was determined as 40 nM.

`NCC(Oc1ccc2ncc(-c3cc4ccccc4o3)n2n1)c1ccccn1` (stereo not shown) [Example 57, 2-{[3-(1-benzofuran-2-yl)-imidazo-[1,2-b]-pyridazin-6-yl]oxy}-2-(pyridin-2-yl)-ethanamine]: the half-inhibitory concentration (IC50) on MKNK1 [2] was determined as 94 nM.

The compound `CC(C)Oc1cccc(C(CN)Oc2ccc3ncc(-c4cc5ccccc5o4)n3n2)c1` (stereo not shown) [Example 58, 2-{[3-(1-benzofuran-2-yl)-imidazo-[1,2-b]-pyridazin-6-yl]oxy}-2-(3-iso-propoxyphenyl)-ethanamine] registered a half-maximal inhibitory concentration (IC50) against MKNK1 [2] of 20 nM.

Compound `NCC(Oc1ccc2ncc(-c3cc4ccccc4o3)n2n1)c1cccc(C(F)(F)F)c1` (stereo not shown) [Example 59, 2-{[3-(1-benzofuran-2-yl)-imidazo-[1,2-b]-pyridazin-6-yl]oxy}-2-[3-(trifluoromethyl)-phenyl]-ethanamine] showed a half-maximal inhibitory concentration (IC50) against MKNK1 [2] of 37 nM.

Take `NCC(Oc1ccc2ncc(-c3cc4ccccc4o3)n2n1)c1ccc(F)cc1F` (stereo not shown) [Example 60, 2-{[3-(1-benzofuran-2-yl)-imidazo-[1,2-b]-pyridazin-6-yl]oxy}-2-(2,4-difluorophenyl)-ethanamine]: the IC50 on MKNK1 [2] was determined as 39 nM.

On MKNK1 [2], `N[C@H](COc1ccc2ncc(-c3cc4ccccc4o3)n2n1)c1ccc(F)cc1` [Example 61, (1S)-2-{[3-(1-benzofuran-2-yl)imidazo[1,2-b]pyridazin-6-yl]oxy}-1-(4-fluorophenyl)ethanamine] came in with a half-maximal inhibitory concentration (IC50) of 29 nM.

`N[C@H](COc1ccc2ncc(-c3cc4ccccc4o3)n2n1)c1ccc(Cl)cc1` [Example 62, (1S)-2-{[3-(1-benzofuran-2-yl)imidazo[1,2-b]pyridazin-6-yl]oxy}-1-(4-chlorophenyl)ethanamine] showed a half-maximal inhibitory concentration (IC50) at MKNK1 [2] of 31 nM.

Take `NC(COc1ccc2ncc(-c3cc4ccccc4o3)n2n1)c1cccnc1` (stereo not shown) [Example 63, 2-{[3-(1-benzofuran-2-yl)imidazo[1,2-b]pyridazin-6-yl]oxy}-1-(pyridin-3-yl)ethanamine]: the IC50 on MKNK1 [2] came out at 54 nM.

Consider `NCCC(Oc1ccc2ncc(-c3cc4ccccc4o3)n2n1)c1ccc(F)cc1` (stereo not shown) [Example 64], for which it took 57 nM to reach half-maximal inhibition against MKNK1 [2] (IC50).

The values above are taken from EP2758401B1 (Bayer Intellectual Property GmbH, priority 2011, dated 2013).
